Structures can show the parent of a compound that is named as a salt. Where two headings read alike, the source gives them in different places.
Key:
[1] = Pharmacokinetic testing in rats; format: in vivo, SD rats
Method: Rats were used as test animals to study the pharmacokinetic behavior of the following compounds in rat plasma.
The drugs were self-made according to the examples of the present invention.
SD rats, 6-8 weeks old, 3 for each administration method/example, male.
The animals were fasted overnight, ate food 8 hours after taking the drug, and drank water freely.
Blood was collected before administration and at 5 min, 15 min, 30 min, 1 hr, 2 hr, 4 hr, 8 hr and 24 hr after administration.
The blood was placed on wet ice and centrifuged to obtain plasma sample (2000 g, 5 min at 4° C.).
The LC-MS/MS method was used to determine the blood drug concentration. The HPLC conditions were: mobile phase A: H2O-0.5% FA; mobile phase B: ACN-0.5% FA;
WinNonlin 8.2 non-compartmental model was used to estimate pharmacokinetic parameters (PK parameters, including but not limited to peak concentration (Cmax), time to peak (Tmax), terminal elimination rate (Ke), terminal elimination half-life (T1/2), area under drug-time curve (AUC), clearance rate (CL), apparent volume of distribution (Vd), mean residence time (MRT), bioavailability (F), etc.).

[2] = tested on: collagen I; assay: Activated LX2 cells (TGFβ1), Western blot: Collagen I; format: cell-based; conditions: LX2 cells stimulated with TGFβ1 (5 ng/mL), 24 hours, FIG. 4
[3] = tested on: α-SMA; assay: Activated LX2 cells (TGFβ1), Western blot: α-SMA; format: cell-based; conditions: LX2 cells stimulated with TGFβ1 (5 ng/mL), 24 hours, FIG. 4
[4] = male, SD, rat, plasma, PO 20 mg/kg

AUC compared with rats administrated with aspartic acid ([1]; PO 20 mg/kg) | Cmax compared with rats administrated with aspartic acid ([1]; PO 20 mg/kg) | Tmax compared with rats administered with aspartic acid ([1]; PO 20 mg/kg) | Cmax ([1]; male, SD, rat, plasma, Compound 6 IV 10 mg/kg, read-out: Cmax of Compound 6) [ng/mL] | Cmax ([1]; male, SD, rat, plasma, Compound 6 PO 40 mg/kg, read-out: Cmax of Compound 6) [ng/mL] | AUC(0-t) [1, 4] [ng·h/mL] | Tmax [1, 4] [min] | Cmax ([1]; male, SD, rat, plasma, PO 20 mg/kg, read-out: Cmax) [ng/mL] | SMILES | expression of Collagen I in the cells [2] | expression of α-SMA in the cells [3]
significantly higher | significantly higher | significantly smaller | 6100 | 22500 | 71300 | 30 | 14800 | COC(=O)C[C@H](N)C(=O)O [Compound 6] |  | 
 |  |  |  |  |  |  |  | COC(=O)C[C@H](N)C(=O)OCOC(=O)[C@@H](N)CC(=O)OC [Compound 54, 4-dimethyl O′1,01-methylene (2S,2'S)-bis (2-aminosuccinate) hydrochloride] | significantly decreased | significantly decreased

— patent US20250025438A1, “Derivative of aspartic acid and use thereof in treatment of metabolic diseases such as hepatic fibrosis and non-alcoholic hepatitis” (SHENZHEN JINGTAI TECHNOLOGY CO., LTD., priority 2021, published 2025)
